The text below walks through data of publication PMC12604490, “Dual immunomodulatory and antileishmanial potential of TLR7/8 agonists against Leishmania donovani” (Infection and Immunity, 2025).

In brackets after ≈: the same amount, converted by molar mass.

The subject of one series is Leishmania major. The arrangement: method as in PMID 33531168. Particulars: 80 µM concentration; cited from earlier work.
The next series concerns Leishmania infantum. Particulars: read-out: IC50 against Leishmania infantum; cited from earlier work.
Series [1] concerns L. donovani promastigotes. In words: In vitro antipromastigote activity (trypan blue count, 48 h). In kind it is cell-based, Leishmania donovani MHOM/IN/80/DD8. Particulars: Leishmania donovani, mean ± SD. As for the experimental part: M199 was added with 0.2% sodium bicarbonate and 10% heat-inactivated fetal bovine serum (FBS; Biowest, France) + antibiotics (gentamycin and streptomycin) by serial subcultures after every 48-72 hours by transferring 0.5-1.0 mL of culture supernatant in fresh medium and kept in a biological oxygen demand (BOD) incubator ([20]). […] The percentage growth inhibition was calculated using the following formulas: Percentage viability=No. of live cells in treated well/No. of live cells in blank well×100 Percentage growth inhibition=100 - percentage viability. The IC50 values were calculated using SPSS software, version 25 ([22]).

Series [2] has as its system intracellular L. donovani amastigotes. The series can be described thus: Antiamastigote activity in infected RAW 264.7 macrophages (Giemsa count, 48 h). The class given is cell-based. Particulars: Leishmania donovani, RAW264.7, intracellular amastigotes in RAW 264.7 macrophages, mean ± SD. As for the experimental part:
The macrophage cell growth was evaluated daily, and the cells were subcultured into a new flask containing fresh cell culture medium once they reached about 80%–90% confluency. […] Macrophages (2 × 10^4/mL) were plated on round coverslips placed in 24-well plates for 24 hours in a CO2 incubator (5% CO2) at 37°C. The coverslips were washed thrice with serum-free medium to remove the non-adherent cells. […] Infected macrophages were incubated with different concentrations of TLR7/8 agonists for 48 hours. After 48 hours, the coverslips were washed with phosphate-buffered saline (PBS), dried, fixed with chilled methanol, Giemsa-stained, and examined under a light microscope. A minimum of 200 macrophages were counted per coverslip to determine the number of amastigotes.

A short description of series [3]: Cytotoxicity on RAW 264.7 macrophages (MTT, 48 h). Particulars: mouse, RAW 264.7 macrophages, MTT, 48 hours, mean ± SD; read-out: RAW macrophage CC50. The class given is cell-based. As for the experimental part:
To evaluate the cytotoxicity and antiamastigote assay, RAW 264.7 macrophages were cultured in Dulbecco’s modified Eagle medium (HiMedia, India), 10% heat-inactivated fetal bovine serum (FBS, Biowest) and cultured at 37°C (5% CO2). The macrophage cell growth was evaluated daily, and the cells were subcultured into a new flask containing fresh cell culture medium once they reached about 80%–90% confluency.
(§1) The cytotoxicity studies were performed using an immune cell line (RAW 264.7 macrophage) and non-immune epithelial cell line (HeLa) by 3-(4,5-dimethylthiazol-2-yl)-2,5-diphenyltetrazolium bromide (MTT) assay. A total of 7,000–10,000 cells/well were supplemented with different concentrations (2–64 μg/mL) of TLR7/8 agonists and incubated for 48 hours. MTT (1 mg/mL) (Hi-Media) was added to each well and kept for 4 hours. The formazan crystals formed were dissolved in 100 µL of dimethyl ulfoxide (DMSO), and absorbance at 550 nm was recorded using a microreader. AmB, MF, and Resiquimod were used as reference drugs. The percentage of cytotoxicity was calculated as [(absorbance of treated well − absorbance of blank) / (absorbance of untreated well − absorbance of blank)] × 100. The CC50 value was calculated with SPSS software. The SI of TLR7/8 agonists was obtained by calculating the ratio of CC50 (RAW 264.7 macrophage and HeLa cells) and IC50 (antipromastigote and antiamastigotes) ([21], [23]).

A short description of series [4]: Cytotoxicity on HeLa cells (MTT, 48 h). The class given is cell-based, human. Particulars: human, HeLa cells, MTT, 48 hours, mean ± SD; read-out: HeLa cell CC50. As for the experimental part:
(§2) HeLa cells (human cervical epithelial cell line) were grown in RPMI-1640 (HiMedia) with 10% FBS and cultured at 37°C (5% CO2). The cells were evaluated daily using an inverted microscope for any contamination and subcultured after reaching confluency ([21]).
as §1

The next series deals with HeLa cells. The series can be described thus: Cytotoxicity on HeLa cells (MTT, 48 h). In kind it is cell-based, human. Particulars: MTT, 48 hours, mean ± SD. As for the experimental part: as §2, §1
For the next series, the system named is RAW 264.7 macrophages. The series can be described thus: NO production in RAW 264.7 macrophages (Griess reagent). The class given is cell-based. Particulars: RAW 264.7 macrophages, 48 hour treatment at the IC50 value, nitrite by Griess. As for the experimental part: After 24 hours, non-adherent cells were removed, and adherent cells were incubated with TLR7/8 agonist for 48 hours in the presence or absence of LPS (1 µg/mL) (Biosciences) to evaluate both unstimulated and LPS-stimulated macrophage responses. After 48 hours, the culture supernatant (100 µL) was collected and mixed with an equal volume of Griess reagent (1% sulfanilamide and 0.1% naphthlethylenediamine dihydrochloride in 2.5% phosphoric acid) (Sigma), and absorbance was measured in a microreader at 540 nm. Nitrite concentration was evaluated from a standard curve generated with sodium nitrite ([25]).
On the technique in general: The Griess reaction detects nitrite, a stable product of nitric oxide.

The test system of series [5] is L. donovani promastigotes. In words: Cell cycle progression in promastigotes (propidium iodide, flow cytometry). Particulars: promastigotes incubated with the IC50 for 48 hours; untreated 12.0% ± 1.05%. The class given is cell-based, Leishmania donovani. As for the experimental part: For analysis of the promastigote cell cycle, 2 × 10^6 promastigotes/mL were briefly incubated with the IC50 of TLR7/8 agonists in a 24-well culture plate. After 48 hours, promastigotes were washed with PBS and fixed with 70% (vol/vol) chilled ethanol. After 1 hour of incubation, parasites were washed with PBS, and the pellet was incubated with 500 µL of DNase-free RNase (200 µg/mL) (Thermo Fisher) for 1 hour. Afterward, parasites were stained with PI dye (50 µg/mL), and the percentage of parasites in the sub-G0/G1 phase was analyzed using FACS Calibur flow cytometry ([20]).
On the technique in general: A flow cytometer gives signals particle by particle.

For the next series, the system named is L. infantum. Also on record: method as in PMID 33851916. Particulars: read-out: IC50 (antiamastigote) against L. infantum; cited from earlier work.
The subject of series [6] is Leishmania in peritoneal macrophages. The arrangement: method as in PMID 30991111. Particulars: cited from earlier work.

With `COc1cc(/C=C/C(=O)CC(=O)/C=C/c2ccc(O)c(OC)c2)ccc1O` [curcumin], the cell death in the series with Leishmania major was 82.5%.

What is called IC50 is the concentration at which inhibition is half-maximal. Consider `CC(C)Cn1cnc2c(N)nc3ccccc3c21` [imiquimod], for which the IC50 in the series with Leishmania infantum was 235 ± 10 nM.

In general, CC50 refers to the concentration giving 50% cytotoxicity. In the case of `C[C@@H]1[C@H](O)[C@@H](C)/C=C/C=C/C=C/C=C/C=C/C=C/C=C/[C@H](O[C@@H]2O[C@H](C)[C@@H](O)[C@H](N)[C@@H]2O)C[C@@H]2O[C@](O)(C[C@@H](O)C[C@@H](O)[C@H](O)CC[C@@H](O)C[C@@H](O)CC(=O)O[C@H]1C)C[C@H](O)[C@H]2C(=O)O` [Amphotericin B, amphotericin B, reference compound], the IC50 in series [1] is 0.13 ± 0.06 µg/mL (≈ 0.141 µM); in series [2], 0.2 ± 0.1 µg/mL (≈ 0.216 µM); in the series with L. infantum, 110 ± 30 nM. Further, the CC50 at 48 h was 19.1 ± 1 µg/mL (≈ 20.7 µM) in [3] and 20.2 ± 0.72 µg/mL (≈ 21.8 µM) in [4]. For the same compound, in the series with HeLa cells, the “HeLa cell CC50” value worked out at 16.18 ± 0.7 µg/mL. The compound also had an NO production in the series with RAW 264.7 macrophages of 20.3 ± 0.8 µM. For the same compound, the “percentage of parasites in sub-G0/G1 phase” value in [5] worked out at 57.0%.

Consider `CCCCCCCCCCCCCCCCOP(=O)([O-])OCC[N+](C)(C)C` [Miltefosine, miltefosine, reference compound], for which the IC50 in series [1] came to 2.43 ± 0.77 µg/mL (≈ 5.96 µM); in [2], 3.43 ± 0.77 µg/mL (≈ 8.42 µM). The 50% cytotoxic concentration (CC50) at 48 h in series [3] stood at 26 ± 1 µg/mL (≈ 63.8 µM); in [4], 32.1 ± 0.94 µg/mL (≈ 78.8 µM). The “HeLa cell CC50” value with HeLa cells came out at 20.1 ± 0.9 µg/mL. In the series on RAW 264.7 macrophages, this compound showed an NO production of 21.9 ± 0.6 µM. Moreover, the “percentage of parasites in sub-G0/G1 phase” value in [5] was determined as 52.3%. Besides, the “IC50 against Leishmania in peritoneal macrophages” value in series [6] is listed as 1.81 µg/mL (≈ 4.44 µM).
